A short description of series [1]: Stains-all binding assay (induced CD). The following applies: peptides; dye 43 μM. The protocol: Stains-all Binding Assay-Aliquots of protein solutions were added to the Stains-all solution and mixed gently. Circular dichroism induced in the achiral dye upon binding to the protein was measured in the visible region of the spectrum (400-700 nm). The dye solution and the crystallins were prepared in 2 mM MOPS buffer, pH 7.2, containing 30% ethylene glycol (34, 35). Ellipticities were expressed in millidegrees.
CD spectra of Stains-all induced upon binding to crystallin were recorded in 2 mM MOPS buffer, pH 7.2, containing 30% ethylene glycol, path length 1 cm. Dye concentration in all experiments was 16 μM. The ellipticity data are represented in millidegrees. A, CD spectra recorded with increasing concentration of -crystallin; 1, 0.026 mg/ml (---); 2, 0.078 mg/ml (- - -); 3, 0.13 mg/ml -.-.-. and 4, 0.156 mg/ml (. . .). B, effect of calcium on Stains-all--crystallin complex spectra. Calcium was added in the dye-protein mixture (-crystallin concentration was […]), and CD was recorded. Calcium concentrations used are as follows: 1, no calcium (---); 2, 50 μM calcium (- - - -); 3, 100 μM calcium (. . .); 4, 200 μM calcium (-.-.-.); and 5, 300 μM calcium (-..-..). The J band was abolished with 300-μM calcium.
CD spectra of Stains-all induced upon binding to peptides were recorded. Dye concentration in all experiments was 43 μM. The ellipticity data are represented in millidegrees. a, CD spectra were recorded with increasing concentration of the wild type peptide g3; 0.013 mg/ml (---), 0.037 mg/ml (- - -), and 0.057 mg/ml (. . . .). b, effect of calcium on Stains-all-peptide complex. Calcium was added to the dye-peptide mixture (peptide concentration was 57 μg/ml) and calcium concentrations used were: no calcium (---), 0.7 mM calcium (- - - -), and 7.5 mM calcium (. . . .). c and d represent the Stains-all binding of the modified peptides, g3a and g3b. Identical concentrations of dye and peptides were used.

Series [2] in a line: 45Ca overlay method (peptide dot-blot). It counts as binding. To be noted: dot-blot on polyvinylidene difluoride membrane. As for the experimental part:
Calcium Binding Studies by ^45Ca Overlay Method-Calcium binding to peptides was done by ^45Ca overlay method of Maruyama et al, 133). […] of peptides were spotted onto a polyvinylidene difluoride membrane by dot-blot apparatus. The membrane was equilibrated in a solution containing 10-mM imidazole HCl. pH 6.8, 60 mM KCl, 5 mM MgCl2 and then incubated for 15 min at 25° C. in the same buffer containing 1 microCi/mil ^45Ca. The membrane was then rinsed twice in 45% ethanol, blotted dry, and exposed to PhosphorImager screen, and the signal was read in Phosphorimager (Fuji Bas-1800).
The wild type peptide g3, its variants (g3a and g3b) and s3a were spotted onto a polyvinylidene difluoride membrane and detected by ^45Ca overlay. For a positive control, EF-hand peptide corresponding to site 4 of rat neuronal calcium sensor-1 was used; bovine serum albumin (BSA) was used as a negative control.

Series [3] is described as follows: Solubility of Greek key peptides. It counts as physicochemical. The following applies: aqueous medium / water.
A short description of series [4]: Calcium binding of single crystallin domain of AIMI. The following applies: compared with gamma-crystallin.

The values that follow come from patent US7711497B2, “Method of identifying calcium-binding sites in gamma-crystallin useful for management of cataract” (Council of Scientific and Industrial Research, priority 2002, dated 2010).

Where no end group is shown, it is not given here.

With “g3a: g3 mutant with Glu-95 and Glu-121 modified to Lys, Seq. ID No. 2 (RMRIYKRDDFRGQMSEITDDCPSLQDRFHLTKVHSLNVLEGS)”, the “Stains-all binding, induced CD band” value in series [1] was “decreased several fold”. In addition, the 45Ca binding entry in series [2] is given as “do not show detectable binding”.
Turning to “s3a: control peptide, first Greek key motif of spherulin 3a (residues 14-56), Seq. ID No. 4 (GEVFLYKHVNFQGDSWKVTGNVYDFRSVSGLNDVVSSVKVGPN)”, the “Stains-all binding, induced CD band” value in series [1] was “binds the dye and induces a calcium-sensitive band at 470-475 nm”. For the same molecule, the solubility result in series [3] is on record as “not soluble in water”.
For the molecule “g3b: g3 mutant with aspartates 108 and 109 replaced by Lys, Seq. ID No. 3 (RMRIYERDDFRGQMSEITKKCPSLQDRFHLTEVHSLNVLEGS)”, in series [1], the “Stains-all binding, induced CD band” value was “binds the dye and induces the band”. Moreover, the 45Ca binding entry in series [2] was “do not show detectable binding”.
With “RMRIYERDDFRGQMSEITDDCPSLQDRFHLTEVHSLNVLEGS [g3]”, the solubility result in series [3] is “fairly soluble in aqueous medium”.

B1: AIMI: single crystallin domain of AIMI (absent in melanoma), 1022-1117 residues, comprising two Greek keys (protein, UniProt Q9Y4K1 1022-1117, looked up, fragment)
chain: AAKSGPQVIPPASEKTLPIQAQSQGSRTPLMAESSPTNSPSSGNHLATPQRPDQTVTNGQDSPASLLNISAGSDDSVFDSSSDMEKFTEIIKQMDS
modifications: crystallin domain
notes: single crystallin domain of AIMI (absent in melanoma), 1022-1117 residues, comprising two Greek keys
Regarding B1, the calcium binding affinity entry in series [4] is “binds calcium with a comparative affinity to gamma-crystallin”.
